Assay results as given in PubChem BioAssay AID1895 (NMMLSC, 2009).
Activity calls are given as the source filed them. The rule behind the calls is not given here.

The compounds below were run against MEK5 PB1 domain binding to MEKK2 (MAP3K2) mutant PB1, human (assay: inhibitors of MEK5 binding to mutant MEKK2, dose response, biochemical, bead multiplex flow cytometry (AID 1895)). Conditions: Bead-based multiplex flow cytometry.

SMILES | EC50
CC(=O)c1c(C)[nH]c(C(=O)NC2=NCCS2)c1C | > 30 µM (inactive)
C#CCOCCOCCOCCNc1nc(N2CCN(C(=O)[C@H](Cc3ccc(O)cc3)n3cc([C@@H](N)C(C)CC)nn3)CC2)nc(N2CCN(C(=O)[C@H](Cc3cc4ccccc4[nH]3)n3cc([C@@H](N)CC(C)C)nn3)CC2)n1 (some centres not stated) | 24.9 µM
Cc1ccnc(NC(=O)C2(c3cccs3)CCOCC2)c1 | > 30 µM (inactive)
COC(=O)c1c(C)oc(C)c1S(=O)(=O)N(Cc1ccccc1)C(C)C | > 30 µM (inactive)
C#CCOCCOCCOCCNc1nc(N2CCN(C(=O)[C@H](Cc3cc4ccccc4[nH]3)n3cc([C@@H](N)C(C)CC)nn3)CC2)nc(N2CCN(C(=O)[C@H](Cc3cc4ccccc4[nH]3)n3cc([C@@H](N)Cc4ccc(O)cc4)nn3)CC2)n1 (some centres not stated) | 3.78 µM
CCCOc1ccc2c(c1)C(=NN=C(N)N)c1cc(OCCC)ccc1-2 | 9.98 µM
COc1ccccc1N1CCN(S(=O)(=O)c2ccc(Cl)s2)CC1 | > 30 µM (inactive)
CN1CCN(CC(O)COc2ccc(C34CC5CC(CC(C5)C3)C4)cc2)CC1 (configuration not stated) | > 30 µM (inactive)
COc1ccc(Cn2c(SCc3ccc(C)cc3)nc3cc(OC)c(OC)cc3c2=N)cc1Cl | 2.23 µM
CCC(/C=C1\Sc2ccc(OC)cc2N1CC)=C\c1sc2ccc(OC)cc2[n+]1CCCS(=O)(=O)[O-] | > 30 µM (inactive)
COc1ccc2nc(C)cc(N/N=C/c3cccc(OC)c3O)c2c1 | > 30 µM (inactive)
Cc1ccc(-n2cc(CNCCCn3ccnc3C)c(-c3ccc(F)cc3)n2)cc1 | > 30 µM (inactive)
COc1ccc2nc(C)cc(N/N=C/c3ccc(F)cc3)c2c1 | > 30 µM (inactive)
C#CCOCCOCCOCCNc1nc(N2CCN(C(=O)[C@H](CCCCN)n3cc([C@@H](N)CC(C)C)nn3)CC2)nc(N2CCN(C(=O)[C@H](Cc3cc4ccccc4[nH]3)n3cc([C@@H](N)Cc4ccc(O)cc4)nn3)CC2)n1 | 11.1 µM
CCN(CC)CCOC(=O)c1ccc(N/C=C(/C#N)c2nc(-c3ccc4c(c3)OCO4)cs2)cc1 | > 30 µM (inactive)
NC(N)=N/N=C/c1ccc(OCc2ccccc2Cl)cc1 | > 30 µM (inactive)
Cc1ccc(CN2CCSc3ccc(C(=O)NC4CCN(Cc5ccccc5)CC4)cc32)cc1 | 4.92 µM
